# Source: article PMC3365588 (Structure(London, England:1993), 2009)
# What was measured:
# [1] = system: RNH activity of HIV-1; settings: read-out: IC50, inhibition of RNH activity; previously reported; cited from earlier work
# [2] = system: RNase H cleavage by HIV-1 RT; settings: cited from earlier work
# [3] = system: HIV-1 RT with benzoyl-L-phenylalanine in place of Tyr501; settings: cited from earlier work
# [4] = system: E. coli RNase H; settings: cited from earlier work
# [5] = biological target: T1, HIV-1 RT (Human immunodeficiency virus type 1 group M subtype B, UniProt P03366); test: Direct binding assay using intrinsic protein fluorescence; settings: KD^fluor
# [6] = biological target: T1, HIV-1 RT; test: Direct binding assay using surface plasmon resonance; settings: for Kd: KD^SPR
# [7] = system: HIV-1 integrase; test: Inhibition of HIV-1 integrase; assay type: biochemical; settings: data not shown
# [8] = Enzyme + MgCl2, free enzyme (no substrate)
Structure (SMILES),IC50 [1],Inhibition of polymerase-independent secondary cuts in the RNA strand [2],"Inhibition of RNase H cleavage with pre-formed Enzyme·Substrate complex ([2]; pre-steady state conditions, ref Bielhartz et al)",Inhibition of polymerase dependent cleavage ([2]; ref Bielhartz et al),Effect of substituting benzoyl-L-phenylalanine for Tyr501 on inhibition [3],"Fold difference of IC50, RNH of HIV-1 RT vs E. coli RNase H [4]",Kd ([5]; Enzyme + MgCl2 + ds RNA (non-hydrolyzable substrate analog)),"Kd [5, 8]",IC50 [6],"Kd [6, 8]","Kd ([6]; Enzyme, no metal (MgCl2 omitted, EDTA added))","Fold difference of IC50, RNH of HIV-1 RT vs HIV-1 integrase [7]"
CC(C)c1ccccc(=O)c1O [α-thujaplicin],50 µM,–,–,–,–,–,–,–,–,–,–,–
"CC(C)c1ccc(O)c(=O)c(O)c1 [β-thujaplicinol, 2,7-dihydroxy-4-(propan-2-yl)-cyclohepta-2,4,6-trien-1-one]",0.21 µM,inhibits polymerase-independent “secondary cuts”,unable to inhibit RNase H cleavage,not an inhibitor of polymerase dependent cleavage,conferred resistance to inhibition,~300 fold,0.185 ± 0.008 µM,1 µM,> 100 µM,6 ± 1 µM,> 100 µM,over 10 fold
